# Where two headings read alike, the source gives them in different places.
# Experiments:
# [1] = system: human dermal fibroblast cultures; assay: Toxicity assay, MTS/PMS assay of cell viability; format: cell-based
# Procedure: Culture medium was aspirated from confluent culture and washed with versene. […] Trypsin was neutralised with an equal volume of growth medium, the cell suspension was transferred to a universal tube. The culture flask was washed with PBS and transferred to the universal tube. Centrifugation was performed at 200×g for 7 minutes. Cells were resuspended in 1-2 ml growth medium.
# Cells were seeded (10^5/well) into 24-well plates in 0.5 ml DMEM growth medium/well and incubated at 37° C. in a humidified 5% CO2 incubator, until the cells adhered and spread, typically overnight. A single well blank/plate was retained for a reagent control.
# Culture medium was aspirated from cultures and replaced with: a weighed sample of scaffold (20 mg/well) in fresh serum-free DMEM; serum-free DMEM with a range of dilutions of glutaraldehyde or EDC as cross-linking agents. Cells were incubated at 37° C. in humidified 5% CO2 for 1 hr.
# The medium and scaffold material was removed from cells and replaced with fresh maintenance medium (DMEM with 2% HIFBS) and returned to the incubator for 2 to 22 hours. Direct toxicity measurements were taken at 2, 14 and 20 hours. For exposure to matrices, incubation was for 20 hrs. The same medium was added to an empty control well for a reagent blank.
# Aliquots of MTS & PMS stock solutions were thawed and a working MTS/PMS reagent was prepared (2 ml MTS+100 μl PMS). MTS/PMS reagent was added to all wells (50 μl/well) and returned to the incubator for 2-4 hours, until colour developed in the medium over control cultures without toxic challenge.
# 100 μl aliquots of medium were transferred to a 96 well ELISA plate for spectrophotometric measurement at 495 nm.
# Matrices of 1% fibrin/1% alginate, foamed & lyophilised, were cross-linked with EDC or glutaraldehyde and washed 5 times in glycine or PBS before a second lyophilisation, or not, as indicated. […] pieces of matrix were incubated in wells with confluent fibroblast cultures in serum-free medium for 1 hr to detect leachable toxicity, assessed after 20 hr to check for induction of delayed cell death.
# human dermal fibroblasts [2] = assay: MTS assay, acute cytotoxicity; format: cell-based; details: FIGS. 30 and 31
# Procedure: (§1) The MTS assay was used as described hereinbefore with certain modifications.
# (§2) Firstly, two modalities were used, (i) acute cytotoxicity and (ii) effect on proliferation over 3 days.
# (§3) On day −1, human dermal fibroblasts were seeded for (i) at high density (5×10^5/well) and for (ii) at low density (2.5×10^4/well).
# (§4) On day 0, cultures were washed in PBS/g and exposed to the test agent diluted into PBS/g unless otherwise stated, for a test period (1-4 hr). Then the test agent was removed and culture medium replaced. For (i), cells were returned to maintenance medium (2% FBS/DMEM) followed by MTS/PMS reagent for two hours. For (ii), cells were returned to growth medium (10% FBS/DMEC) for three days. After this period, the growth medium was aspirated and replaced with maintenance medium (2% FBS/DMEM) followed by MTS/PMS reagent for two hours.
# (§5) MTS colour change at 2 hours was measured as described hereinbefore.
# (§6) Test agents were GTA and soaked scaffold supernatants (a), fibrinogen and fragment E Schiff base hydrolysate (b) and (c) and alginate (d).
# neutrophil CD18 = assay: Human neutrophil activation assay (CD18, FACS); format: cell-based; details: 1 hour at 37° C., FIGS. 36 and 37, read-out: ED50 neutrophil CD18 activation
# Procedure: Dextran 70 and ACD were warmed to 37° C. in a water bath. 2.5 ml ACD was drawn into a 20 ml syringe. 10-15 ml of blood was drawn from a volunteer into the same syringe and inverted several times to mix. The needle was changed and 6-7 ml of Dextran 70 was drawn. Some air was drawn into the top of the syringe and mixed thoroughly by inverting the syringe several times. The syringe was turned upright, taped to the inside of a 37° C. water bath and left for approximately 1.5 hours to allow for erythrocytes to sediment, leaving a leukocyte-rich plasma upper layer.
# The syringe was carefully removed from the water bath keeping upright and the top of the needle was bent through about 120°. A 15 ml polypropylene tube was placed under the tip of the needle and approximately half of the plasma was slowly removed (containing the leukocytes). The remainder of the plasma was removed into a second tube leaving the red blood cells in the syringe to be discarded. Each of the 15 ml tubes was topped up with PBS/g and inverted to mix.
# The tubes were centrifuged at 1000 rpm for 10 minutes. The supernatant was removed using a 1 ml plastic pipette and the pellet was loosened. If the supernatant appeared cloudy then a check was performed under the microscope for remaining cells and centrifuged again if necessary. When the supernatant was clear it was discarded. […]
# human dermal fibroblasts [3] = assay: MTS assay, effect on proliferation over 3 days; format: cell-based; details: FIGS. 30 and 31
# Procedure: as §1, §2, §3, §4, §5, §6
# HPMEC = assay: Cell adhesion assay on cross-linked matrix protein coatings (crystal violet); format: cell-based, human; details: coating cross-linked with glutaraldehyde or EDC dilution range, 1 hr adhesion; FIG. 5
# Procedure: HPMEC were isolated from human placentae obtained with consent and cultured according to previously published methods (Leach et al. (1994) Placenta 15(4): 355-64; Dye et al. (2001) Microvasc Res 62(2): 94-113; Dye et al. (2004) Faseb J 18(1): 125-7). Established cultures are phenotypically stable for typically up to 25 passages at a split ratio of 1:3. Cultures are maintained in standard growth medium (M199+5% PDPDS+2% HIFBS). Cultures were maintained in a humidified 5% CO2 and 37° C. atmosphere. For biocompatibility assessment of scaffolds, harvested cells were resuspended in high growth medium (M199+5% HIBFS). For cell adhesion assays harvested cells were resuspended in M199+0.5% BSA. […]
# The well was washed with a sufficient number of washes to reduce residual concentration to below cytotoxic limits (5×100 μl per well) with PBS, replaced with 50 μl/well BSA/NaHCO3 (covalent reagent blocking step) and incubated for 1 hr at 37° C. Washing was performed twice with sterile PBS and the plate was stored with 100 μl/well PBS until the cells were ready.
# Accutase was thawed and M199/BSA was prepared. […] The supernatant was aspirated and the cells were resuspended in 1-2 ml M199/BSA as appropriate, titurated, and cell density was counted (1:10 in 4% trypan blue/PBS), aiming for around 2×10^6/ml.
# The number of cells required for the assay was calculated using 1-2×10^4 cells/well. […]
compound,measurement,setting,value
"CCN=C=NCCCN(C)C.Cl [EDC, 1-(3-Dimethylamino-propyl)-3-ethyl-carbodiimide (EDC) HCl]",LD50 for cells relative to the lowest cross-linking concentration used,[1],"5,000-10,000 times less"
same,toxicity (loss of cell viability),"[1]; 1 hr exposure, measured at 2, 14 and 20 hours, FIGS. 6-7",acute concentration-dependent toxicity
O=CCCCC=O [glutaraldehyde],acute LD50 on HDF cytotoxicity,human dermal fibroblasts [2],50 to 150 µM
same,LD50 for cells relative to the lowest cross-linking concentration used,[1],5-10 times less
same,toxicity (loss of cell viability),[1],acute concentration-dependent toxicity
same,EC50,neutrophil CD18,150 to 500 µM
same,LD50 for proliferation,human dermal fibroblasts [3],around 7 μM
collagen,effect of cross-linking on cell adhesion,HPMEC,biphasic effect
fibrinogen,effect of cross-linking on cell adhesion,HPMEC,continuously increases adhesion
